Measurements from patent publication US20100041620A1, “METHODS FOR IMPROVING FRONTAL BRAIN BIOENERGETIC METABOLISM” (priority 2008, published 2010).

How the values were obtained:
[1] = tested on: parieto-occipital cortex (POC); assay: 31P magnetic resonance spectroscopic imaging (3D-CSI, 4 Tesla) of phosphorus metabolites, parieto-occipital cortex comparison region; assay type: in vivo, human; conditions: 6 weeks oral citicoline, doses pooled, mean ± SD
Description: (§1) ^31P data were collected using a three-dimensional chemical shift imaging (3D-CSI) technique at 4 Tesla in healthy middle-aged individuals. The use of 3D-CSI at high field has several advantages over previous methods: (1) increased spectral dispersion, which allows for increased precision of metabolite quantification; (2) post-processing grid shifting that allows for 3D placement of voxels of interest; and (3) the ability to co-register voxel placement between baseline and post-treatment follow-up. High-energy metabolite peaks quantified in the present study include phosphocreatine (PCr), β-nucleoside triphosphate (NTP, ATP in brain), and inorganic phosphate (Pi). Phospholipid membrane metabolite peaks quantified include anabolites, phosphomonoesters (PME), including phosphoethanolamine (PE) and phosphocholine (PC), and catabolites, phosphodiesters (PDE), including glycerophosphoethanolamine (GPE) and glycerolphosphocholine (GPC). A region of interest approach was used to examine phosphorus metabolite levels in the anterior cingulate cortex (ACC), given the notable age-related decline in frontal brain metabolism and impairment of frontally-mediated cognitive functions. A comparison region placed in the parieto-occipital cortex (POC) was also evaluated. It was hypothesized that oral supplementation with citicoline would improve frontal bioenergetic metabolism via elevations in availability of high-energy phosphates, as well as alteration of membrane phospholipid turnover by providing additional membrane precursors.
(§2) Subjects included sixteen neurologically and psychiatrically healthy adults (mean age=47.3±5.4 years; 8 females, 8 males). Trained research technicians administered a structured clinical psychiatric interview using the Structured Clinical Interview for DSM-IV (SCID). All subjects were free of Axis I diagnoses, neurological illness, severe medical problems, and psychoactive substance use.
(§3) Subjects were randomly assigned to receive a six-week supply of either 500 mg (4 males and 4 females) or 2000 mg (4 males and 4 females) of Cognizin® Citicoline (Kyowa Hakko Kogyo Co., Ltd., JAPAN). Subjects were instructed to take one capsule every day (500 mg group) or four capsules every day in a single dose (2000 mg group) for six weeks. […] Magnetic resonance spectroscopy (MRS) was completed on all subjects in two imaging sessions: one prior to beginning treatment (baseline) and one after completing six weeks of treatment.
(§4) All proton imaging was performed using the proton channel of the dual tuned open face proton-phosphorus TEM whole-head coil from Bioengineering Inc. (Minneapolis, Minn.) operating at a nominal frequency of 170.3 MHz. A 2D gradient-recalled echo imaging sequence (12 seconds duration) was used to acquire a single image in all three spatial dimensions (sagittal, coronal, axial) to quickly determine the patient's position and angle. High-contrast, T1-weighted sagittal, coronal images as well as T1 and T2-weighted transverse images of the entire brain were acquired using a three-dimensional, magnetization-prepared FLASH imaging sequence (3D-MP FLASH), allowing for clear segmentation between grey-matter, white-matter, and CSF, as well as clearly delineating between the different anatomical regions of interest. This approach was used to optimize ^31P-MRSI voxel positioning and volumetric correction in the regions of interest.
(§5) Phosphorus MRSI was performed using the phosphorus channel of the dual tuned proton-phosphorus TEM whole-head coil from Bioengineering Inc. (Minneapolis, Minn.) operating at 68.9 MHz. Phosphorus MRSI data were recorded using a three-dimensional chemical shift imaging (3D-CSI) sequence (Garraux, Neuroimage 10:149-162, 1999). […]

[2] = tested on: anterior cingulate cortex (ACC); assay: 31P magnetic resonance spectroscopic imaging (3D-CSI, 4 Tesla) of phosphorus metabolites, anterior cingulate cortex; assay type: in vivo, human
Description: as §1, §2, §3, §4, §5

[3] = six weeks of citicoline supplementation, decrease
[4] = six weeks of citicoline supplementation, increase

What does the source list for `C[N+](C)(C)CCOP(=O)(O)OP(=O)([O-])OC[C@H]1O[C@@H](n2ccc(N)nc2=O)[C@H](O)[C@@H]1O` [citicoline, cytidine 5′-diphosphocholine]?
PCr/Pi ([1]; baseline 2.30 ± .34, ns): 2.38 ± .53; PC, metabolite ratio relative to the total 31P signal ([1]; baseline .023 ± .009, ns): .026 ± .012; GPE, metabolite ratio relative to the total 31P signal ([1]; baseline .034 ± .011, ns): .032 ± .014; GPC, metabolite ratio relative to the total 31P signal ([1]; baseline .047 ± .017, ns): .047 ± .010; β-NTP, metabolite ratio relative to the total 31P signal ([1]; baseline .063 ± .009, ns): .066 ± .010; PE, metabolite ratio relative to the total 31P signal ([1]; baseline .065 ± .009, ns): .058 ± .010; Pi, metabolite ratio relative to the total 31P signal ([1]; baseline .072 ± .010, ns): .075 ± .013; PME, metabolite ratio relative to the total 31P signal ([1]; baseline .088 ± .015, ns): .084 ± .011; PCr, metabolite ratio relative to the total 31P signal ([1]; baseline .164 ± .016, ns): .173 ± .015; PDE, metabolite ratio relative to the total 31P signal ([1]; baseline .165 ± .029, ns): .152 ± .030; PCr, metabolite ratio relative to the total 31P signal ([2]; 6 weeks oral citicoline, 500 and 2000 mg/day groups pooled, mean ± SD, baseline .154 ± .019, p .02): .162 ± .015; PCr/Pi ([2]; 6 weeks oral citicoline, doses pooled, mean ± SD, baseline 2.17 ± .46, p .03): 2.82 ± 1.04; PC, metabolite ratio relative to the total 31P signal ([2]; 6 weeks oral citicoline, doses pooled, mean ± SD, baseline .026 ± .010, p .02): .019 ± .008; GPE, metabolite ratio relative to the total 31P signal ([2]; 6 weeks oral citicoline, doses pooled, mean ± SD, baseline .039 ± .010, p .01): .030 ± .009; PE, metabolite ratio relative to the total 31P signal ([2]; 6 weeks oral citicoline, doses pooled, mean ± SD, baseline .043 ± .015, p .04): .054 ± .008; GPC, metabolite ratio relative to the total 31P signal ([2]; 6 weeks oral citicoline, doses pooled, mean ± SD, baseline .051 ± .015, ns): .047 ± .016; β-NTP, metabolite ratio relative to the total 31P signal ([2]; 6 weeks oral citicoline, doses pooled, mean ± SD, baseline .066 ± .012, p .05): .075 ± .014; PME, metabolite ratio relative to the total 31P signal ([2]; 6 weeks oral citicoline, doses pooled, mean ± SD, baseline .069 ± .016, ns): .073 ± .012; Pi, metabolite ratio relative to the total 31P signal ([2]; 6 weeks oral citicoline, doses pooled, mean ± SD, baseline .073 ± .012, p .15): .065 ± .022; PDE, metabolite ratio relative to the total 31P signal ([2]; 6 weeks oral citicoline, doses pooled, mean ± SD, baseline .183 ± .032, p .07): .154 ± .049; decreased GPE, change from baseline [2, 3]: 23%; decreased PC, change from baseline [2, 3]: 29%; increased PCr/Pi, change from baseline ([2]; six weeks of citicoline supplementation, doses pooled, increase): 32%; increased PCr, change from baseline [2, 4]: 7%; increased PE, change from baseline [2, 4]: 26%; increased β-NTP, change from baseline [2, 4]: 14%; Pi, metabolite ratio relative to the total 31P signal ([2]; six weeks, 2000 mg/day group, baseline 0.069±0.010, p=0.57): 0.073±0.019; PCr/Pi ratio ([2]; six weeks, 2000 mg/day group, baseline 2.41±0.52, p=0.84): 2.33±0.61; increased PCr/Pi, change from baseline ([2]; six weeks, low dose (500 mg), increase): 66%; decreased Pi, change from baseline ([2]; six weeks, low dose only (500 mg), decrease): 26%
